# Experimental data published in patent US9399016B2, “Materials and complexes for the delivery of biologically-active materials to cells” (UCL BUSINESS PLC, priority 2006, dated 2016).
# Assays:
# [1] = test system: Neuro 2A, AJ3.1, bEND.3, 16HBE14o-, ΣCFTE29o- cells and primary PVSMCs; test: In vitro transfection, luciferase reporter, statements covering several or all cell types studied; format: cell-based; details: for transfection efficiency of cleavable (RVRR) peptide compared with equivalent non-cleavable peptide control: Neuro 2A, bEND.3 and 16HBE14o- cells, stated for 'most' of the peptides, controls P1, P6, FMM12, PE, PY; for transfection efficiency, rank among PEG-acetal pH-sensitive lipids: all the cells, lipid/DOPE complexed to peptide 6 or E and pCI-Luc 2:4:1
# Method: (§1) Cells were seeded into 96-well plates at 2.5×10^3 cells per well for bEND.3 cells and at 2×10^4 cells per well for all the other cells, then incubated overnight at 37° C. in complete growth medium. The following day, lipopolyplex (LPD) formulations were prepared essentially as described previously (Hart et al., 1998), by mixing the components in the following order: 50 μl of lipid (L) at 80 μg/ml in OptiMEM, 70 μl of peptide (P) at 110 μg/ml in OptiMEM and 50 μl of plasmid pCI-Luc (D) at 40 μg/ml in OptiMEM corresponding to a weight ratio of 2:4:1, respectively. All the complexes were mixed by pipetting briefly, kept for 1 h at room temperature and then diluted in OptiMEM to a final volume of 1.57 ml. Two hundred microliters of complexes corresponding at 0.25 μg of plasmid DNA were added to each culture well after removal of the complete growth medium. All the transfections were carried out in 6 wells each. A centrifugation (1500 rpm, during 5 minutes) could be performed to promote the complex sedimentation and cell contact. The cells were incubated with the complexes for 4 h at 37° C. before replacing with fresh media for 24 h, after which reporter gene expression was analysed by luciferase assay (Promega, Madison, Wis., USA). For bEND.3 cells, 5 mM sodium butyrate was added to the transfection medium and to the fresh media to achieve optimal expression levels.
# (§2) Cells were washed once with PBS before the addition of 20 μl of 1× Reporter Lysis Buffer (Promega, Madison, Wis., USA) to the cells for 20 min at 4° C. before freezing at −80° C. for at least 30 min, followed by thawing at room temperature. Then the luciferase activity was measured during 10 seconds using the Luciferase Assay System (Promega, Madison, Wis., USA) and a Lucy-1 Luminometer (Anthos Ltd., Salzburg, Austria). The amount of protein present in each transfection lysate was determined with the Bio-Rad (Hercules, Calif., USA) protein assay reagent by the manufacturer's instructions, adding 20 μl from the luciferase test to 180 μl of the reagent diluted 1 in 5 and incubating at room temperature for 10 min before comparing the OD590 to a range of BSA standards. In vitro luciferase activity was expressed as Relative Light Units (RLU) per milligram of protein (RLU/mg).
# [2] = test system: female A/J mice bearing a tumour (Neuro 2A); test: In vivo transfection, i.v., luciferase expression in tumours and organs; set-up: species or system mouse; details: peptide complexed to lipid ME42/DOPE and pCI-Luc, 24 hours, p>0.05
# Method: All animal procedures were approved and licensed by the Home Office and performed to the standards required by the UK Co-ordinating Committee on Cancer Research (UKCCCR) (Workman et al., British Journal of Cancer, 1998, 77, 1-10). Female A/J mice (Harlan Laboratories, U.K) of 8-12 weeks old were injected subcutaneously in the right posterior flank with 1.5×10^6 Neuro 2A cells. After 10±2 days, when tumors had reached approximately 8-12 mm in size, 100 μl of LPD complexes made in 5% glucose and containing 50 ug pCI-Luc or pAB 11 were injected into the tail vein. Experiments were carried out at least six times. Twenty-four hours after injection, mice were killed and tumours and organs were resected and stored at −80° C. Tissues were defrosted in ice, submersed in reporter gene assay lysis buffer (Roche, Germany), homogenized with an IKA homogenizer (IKA, Staufen, Germany) and centrifuged at 4600 rpm during 10 min at 4° C. The supernatant was got back and centrifuged at 13000 rpm during 10 min at 4° C. Luciferase activity in the tissue lysates was measured using a FLUOstar Optima (BMG Labtech, UK) during 30 seconds and was expressed as RLU per milligram of protein (RLU/mg). Two million RLU/30 sec correspond to 1 ng luciferase.
# Neuro 2A cells = test: In vitro transfection with LPD/LD complexes, luciferase reporter (pCI-Luc); format: cell-based, mouse
# Method: as §1, with “For bEND.3 cells, 5 mM sodium butyrate was added to the transfection medium and to the fresh media to achieve optimal expression levels.” left out
# as §2, with “In vitro luciferase activity was expressed as Relative Light Units (RLU) per milligram of protein (RLU/mg).” left out
# [3] = Hydrolysis studies of PEG-acetal cleavable lipids; format: physicochemical; details: pH at which hydrolysis was observed; 37° C., pH range 3 to 7; TLC, confirmed by mass spectrometry
# Method: Hydrolysis of the PEG-acetal lipids was investigated at 37° C. over a pH range of 3 to 7.
# Acid hydrolysis of the compounds was monitored by TLC, and cleavage was then confirmed by mass spectrometry. An example of the TLC analysis method used for compound JBW389 is shown FIG. 4 with a control (the cleaved acetal product, the corresponding aldehyde) and the pH at which hydrolysis for all of the compounds prepared was observed is given in Table II.
# [4] = test system: primary porcine vascular smooth muscle cells (PVSMCs); test: In vitro transfection with LPD/LD complexes, luciferase reporter (pCI-Luc); format: cell-based; details: complexed to peptide E, p<0.05
# Method: (§3) Cells were seeded into 96-well plates at 2.5×10^3 cells per well for bEND.3 cells and at 2×10^4 cells per well for all the other cells, then incubated overnight at 37° C. in complete growth medium. The following day, lipopolyplex (LPD) formulations were prepared essentially as described previously (Hart et al., 1998), by mixing the components in the following order: 50 μl of lipid (L) at 80 μg/ml in OptiMEM, 70 μl of peptide (P) at 110 μg/ml in OptiMEM and 50 μl of plasmid pCI-Luc (D) at 40 μg/ml in OptiMEM corresponding to a weight ratio of 2:4:1, respectively. […] The cells were incubated with the complexes for 4 h at 37° C. before replacing with fresh media for 24 h, after which reporter gene expression was analysed by luciferase assay (Promega, Madison, Wis., USA). […]
# (§4) Cells were washed once with PBS before the addition of 20 μl of 1× Reporter Lysis Buffer (Promega, Madison, Wis., USA) to the cells for 20 min at 4° C. before freezing at −80° C. for at least 30 min, followed by thawing at room temperature. Then the luciferase activity was measured during 10 seconds using the Luciferase Assay System (Promega, Madison, Wis., USA) and a Lucy-1 Luminometer (Anthos Ltd., Salzburg, Austria). […] In vitro luciferase activity was expressed as Relative Light Units (RLU) per milligram of protein (RLU/mg).
# bEND.3 cells = test: as above; format: cell-based, mouse; details: complexed to peptide E, p<0.05
# Method: as §1, with “For bEND.3 cells, 5 mM sodium butyrate was added to the transfection medium and to the fresh media to achieve optimal expression levels.” left out
# as §2, with “In vitro luciferase activity was expressed as Relative Light Units (RLU) per milligram of protein (RLU/mg).” left out
# ΣCFTE29o- cells = test: as above; format: cell-based, human; details: complexed to peptide E, p<0.05
# Method: as §3, §4
# 16HBE14o- cells = test: as above; format: cell-based, human; details: complexed to peptide E, p<0.05
# Method: as §3, §4
# [5] = lipofectin:peptide:pCI-Luc 2:4:1
Hydrolysis pH [3],Molecule,"transfection efficiency of cleavable (RVRR) peptide compared with equivalent non-cleavable peptide control [1, 5]","transfection efficiency, rank among PEG-acetal pH-sensitive lipids [1]",further results
5.0,"CCCCCCCC/C=C\CCCCCCCCOCC(C[N+](C)(C)CCCCCC(OCCOCCOC)OCCOCCOC)OCCCCCCCC/C=C\CCCCCCCC (centres unmarked) [JBW413, N-(2,3-Bis((Z)-octadec-9-enyloxy)propyl)-6,6-bis(2-(2-methoxyethoxy)ethoxy)-N,N-dimethylhexan-1-aminium chloride]",,the best lipids for transfection,"transfection efficiency compared with non-cleavable lipid JBW456 (Neuro 2A cells; complexed to peptide E, p>0.05): as efficient as JBW456"
3.5,"CCCCCCCC/C=C\CCCCCCCCOCC(C[N+](C)(C)CCCCCC(OCCOCCO)OCCOCCO)OCCCCCCCC/C=C\CCCCCCCC (centres unmarked) [JBW411, N-(2,3-bis((Z)-octadec-9-enyloxy)propyl)-6,6-bis(2-(2-hydroxyethoxy)ethoxy)-N,N-dimethylhexan-1-aminium chloride]",,less efficient,
4.0,"CCCCCCCC/C=C\CCCCCCCCOCC(C[N+](C)(C)CCCCCCCC(OCCOCCO)OCCOCCO)OCCCCCCCC/C=C\CCCCCCCC (centres unmarked) [JBW400, N-(2,3-bis((Z)-octadec-9-enyloxy)propyl)-8,8-bis(2-(2-hydroxyethoxy)ethoxy)-N,N-dimethyloctan-1-aminium chloride]",,the best lipids for transfection,transfection efficiency relative to non-cleavable lipid JBW456 [4]: 4 times; transfection efficiency relative to non-cleavable lipid JBW456 (bEND.3 cells): 2 times
5.5,"CCCCCCCC/C=C\CCCCCCCCOCC(C[N+](C)(C)CCCC(OCCOCCO)OCCOCCO)OCCCCCCCC/C=C\CCCCCCCC (centres unmarked) [JBW389, N-(2,3-Bis((Z)-octadec-9-enyloxy)propyl)-4,4-bis(2-(2-hydroxyethoxy)ethoxy)-N,N-dimethylbutan-1-aminium chloride]",,the best lipids for transfection,transfection efficiency relative to non-cleavable lipid JBW456 (ΣCFTE29o- cells): 2 times; transfection efficiency relative to non-cleavable lipid JBW456 (16HBE14o- cells): 6 times
3.0,"CCCC/C=C\CCCCCCCCCCOCC(C[N+](C)(C)CCCCCC(OCCOCCO)OCCOCCO)OCCCCCCCCCC/C=C\CCCC (centres unmarked) [JBW418, N-(2,3-Bis((Z)-hexadec-11-enyloxy)propyl)-6,6-bis(2-(2-hydroxyethoxy)ethoxy)-N,N-dimethylhexan-1-aminium chloride]",,less efficient,
3.0,CCCCCCCC/C=C\CCCCCCCCOCC(C[N+](C)(C)CCCCCC(OCCOCCOCCOCCO)OCCOCCOCCOCCO)OCCCCCCCC/C=C\CCCCCCCC (centres unmarked) [JBW412],,less efficient,

# Further lines, the molecule ahead of its results:
Molecule,Hydrolysis pH [3],"transfection efficiency of cleavable (RVRR) peptide compared with equivalent non-cleavable peptide control [1, 5]","transfection efficiency, rank among PEG-acetal pH-sensitive lipids [1]",further results
(K)16RVRRGACSERSMNFCG [ME69],,as or more efficient,,
(K)16RVRRGACRGDCLG [ME27],,as or more efficient,,"transfection efficiency, rank among cleavable peptides ME27, ME28, ME29 ([1]; lipofectin:peptide:pCI-Luc 2:4:1, each of Neuro 2A, AJ3.1, bEND.3, 16HBE14o-, ΣCFTE29o-, PVSMCs, p<0.05): significantly the best cleavable peptide; transfection efficiency compared with non-cleavable peptide ME61 ([1]; lipofectin:peptide:pCI-Luc 2:4:1, other cell lines than Neuro 2A, p<0.05): significantly more efficient than ME61; luciferase expression in tumour, by peptide [2]: 105000 RLU/mg; transfection efficiency compared with non-cleavable peptide ME61 (Neuro 2A cells; [5]): as efficient as the non-cleavable control peptide ME61"
(K)16RVRRGACRRETAWACG [FMM8],,as or more efficient,,
(K)16RVRRGACYGLPHKFCG [PCY],,as or more efficient,,
(K)16RVRRGACRGDMFGCA [ME68],,as or more efficient,,
